Assay results as given in PMC12628652, “A Validated UPLC‐MS/MS Method for Monitoring Temozolomide and Perillyl Alcohol Metabolites in Biological Matrices: Insights From a Preclinical Pharmacokinetic Study” (Biomedical Chromatography, 2025).

How the values were obtained:
[1] = Stability of analytes in rat plasma and tissue matrices (freeze-thaw, bench-top, autosampler); assay type: physicochemical; details: for Stability (ER %) Autosampler: 10°C for 24 h; for Stability (ER %) Bench-top: room temperature for 6 h; for Stability (ER %) Freeze/thaw: three freeze–thaw cycles over 24-h intervals
Procedure: QC samples were prepared by spiking blank rat plasma with PA, AIC, and TMZ at three concentration levels: 30, 80, and 200 ng/mL. Internal standards (IS1 and IS2) were added to each sample at a final concentration of 100 ng/mL. Whole blood was obtained from untreated anesthetized rats that were euthanized as part of the study protocol. Blood samples were collected into heparinized tubes and centrifuged at 3500 rpm for 10 min at 20°C to separate plasma. Organs including the brain, lungs, kidneys, spleen, and liver were promptly excised and homogenized using a Marconi mechanical tissue homogenizer (5 mm probe) in phosphate‐buffered saline (PBS, pH 7.4) at a 1:5 (w/v) tissue‐to‐buffer ratio.
For each matrix sample, 50 μL of homogenate or plasma was mixed with 50 μL of internal standard (IS) solution (100 ng/mL), followed by the addition of the respective working solution to reach the target analyte concentration. The volume was adjusted to 1 mL using an appropriate solvent mixture. Samples were centrifuged again at 3500 rpm for 10 min at 4°C. The resulting supernatants were filtered through 0.22 μm membrane filters prior to chromatographic analysis. All calibration standards and QC samples were prepared freshly on the day of analysis to minimize analyte degradation.
The stability of PA, AIC, and TMZ in rat plasma was assessed under the following conditions using low, medium, and high QC levels: (1) Freeze–thaw stability: Three freeze–thaw cycles over 24‐h intervals; (2) Bench‐top stability: Storage at room temperature for 6 h; (3) Autosampler stability: Storage at 10°C for 24 h. Analytes were considered stable if the relative error (RE%) remained within ±15% (Tiwari and Tiwari [2010]).

[2] = Biodistribution study in rats 4 h after single oral administration of POH and TMZ; assay type: in vivo, Male Wistar rats; details: 4 h after single oral dose POH 47 mg/kg and TMZ 2 mg/kg, n = 4
Procedure: Following blood collection, animals were anesthetized and euthanized, and their organs (kidneys, liver, spleen, brain, and lungs) were promptly excised and stored at −20°C. Tissue samples were homogenized in PBS (pH 7.4) at a ratio of 1 part tissue to 5 parts buffer (w/v), using a mechanical homogenizer equipped with a 5 mm probe.
For chromatographic analysis, 200 μL of each tissue homogenate was mixed with 50 μL of IS solution (final IS concentration: 100 ng/mL) and 750 μL of ACN to reach a final volume of 1 mL. The mixture was centrifuged at 3500 rpm for 10 min at 20°C. The supernatant was collected, filtered through a 0.22 μm membrane, and transferred to injection vials for UPLC‐MS/MS analysis. When necessary, samples were diluted appropriately to ensure analyte concentrations fell within the validated linear range.
The pharmacokinetic and biodistribution study was conducted in accordance with ethical guidelines and approved by the Animal Ethics Committee of the Universidade Estadual do Centro‐Oeste, Brazil (Protocol No. 026/2023). Male Wistar rats (n = 6 for pharmacokinetics; n = 4 for biodistribution), weighing approximately 200 g, were housed under controlled environmental conditions (12 h light/dark cycle, 35% relative humidity, and temperature of 23°C ± 2°C). Animals had free access to food and water, which were withheld 10 h prior to drug administration and resumed 2 h afterward.
Each animal received a single oral dose of POH (47 mg/kg) and TMZ (2 mg/kg). For pharmacokinetic profiling, blood samples were collected via the tail vein into heparinized tubes at predefined time points: 0.5, 1, 2, 4, 8, 12, and 24 h post‐administration. For biodistribution analysis, a separate cohort of rats (n = 4) was sacrificed 4 h after dosing. Organs, including the brain, liver, lungs, kidneys, and spleen, were collected, homogenized, and stored at −20°C for subsequent quantification, as detailed in Section 3.2.

[3] = rat brain homogenate, 200 ng/mL
[4] = rat kidney homogenate, 30 ng/mL
[5] = rat kidney homogenate, 80 ng/mL
[6] = rat kidney homogenate, 200 ng/mL
[7] = rat liver homogenate, 200 ng/mL
[8] = rat spleen homogenate, 30 ng/mL
[9] = rat spleen homogenate, 80 ng/mL
[10] = rat spleen homogenate, 200 ng/mL

In the case of NC(=O)c1[nH]cnc1N [AIC, 5‐aminoimidazole‐4‐carboxamide], the “Stability (ER %) Autosampler” value ([1]; rat brain homogenate, 30 ng/mL) is reported as 2.04%, the “Stability (ER %) Bench-top” value ([1]; rat brain homogenate, 30 ng/mL) is reported as 7.13% and the “Stability (ER %) Freeze/thaw” value ([1]; rat brain homogenate, 30 ng/mL) is reported as 8.55%. The “Stability (ER %) Autosampler” value ([1]; rat brain homogenate, 80 ng/mL) was 4.29%, the “Stability (ER %) Bench-top” value ([1]; rat brain homogenate, 80 ng/mL) was 8.22% and the “Stability (ER %) Freeze/thaw” value ([1]; rat brain homogenate, 80 ng/mL) was 1.79%. For the same compound, the “Stability (ER %) Autosampler” value [1, 3] was 4.57%, the “Stability (ER %) Bench-top” value [1, 3] was 9.26% and the “Stability (ER %) Freeze/thaw” value [1, 3] was 6.76%. The “Stability (ER %) Autosampler” value [1, 4] was 4.28%, the “Stability (ER %) Bench-top” value [1, 4] was 2.11% and the “Stability (ER %) Freeze/thaw” value [1, 4] was 1.29%. For the same compound, the “Stability (ER %) Autosampler” value [1, 5] was 5.42%, the “Stability (ER %) Bench-top” value [1, 5] was 8.94% and the “Stability (ER %) Freeze/thaw” value [1, 5] was 8.45%. For the same compound, the “Stability (ER %) Autosampler” value [1, 6] was 5.94%, the “Stability (ER %) Bench-top” value [1, 6] was 8.76% and the “Stability (ER %) Freeze/thaw” value [1, 6] was 6.46%. For the same compound, the “Stability (ER %) Autosampler” value ([1]; rat liver homogenate, 30 ng/mL) was 4.35%, the “Stability (ER %) Bench-top” value ([1]; rat liver homogenate, 30 ng/mL) was 9.13% and the “Stability (ER %) Freeze/thaw” value ([1]; rat liver homogenate, 30 ng/mL) was 1.67%. For the same compound, the “Stability (ER %) Autosampler” value ([1]; rat liver homogenate, 80 ng/mL) was 1.74%, the “Stability (ER %) Bench-top” value ([1]; rat liver homogenate, 80 ng/mL) was 3.28% and the “Stability (ER %) Freeze/thaw” value ([1]; rat liver homogenate, 80 ng/mL) was 9.53%. For the same compound, the “Stability (ER %) Autosampler” value [1, 7] was 2.34%, the “Stability (ER %) Bench-top” value [1, 7] was 8.71% and the “Stability (ER %) Freeze/thaw” value [1, 7] was 7.67%. The “Stability (ER %) Autosampler” value ([1]; rat lung homogenate, 30 ng/mL) was 2.22%, the “Stability (ER %) Bench-top” value ([1]; rat lung homogenate, 30 ng/mL) was 7.93% and the “Stability (ER %) Freeze/thaw” value ([1]; rat lung homogenate, 30 ng/mL) was 5.74%. For the same compound, the “Stability (ER %) Autosampler” value ([1]; rat lung homogenate, 80 ng/mL) was 2.84%, the “Stability (ER %) Bench-top” value ([1]; rat lung homogenate, 80 ng/mL) was 8.37% and the “Stability (ER %) Freeze/thaw” value ([1]; rat lung homogenate, 80 ng/mL) was 1.04%. For the same compound, the “Stability (ER %) Autosampler” value ([1]; rat lung homogenate, 200 ng/mL) was 3.33%, the “Stability (ER %) Bench-top” value ([1]; rat lung homogenate, 200 ng/mL) was 8.49% and the “Stability (ER %) Freeze/thaw” value ([1]; rat lung homogenate, 200 ng/mL) was 6.67%. For the same compound, the “Stability (ER %) Autosampler” value ([1]; rat plasma, 30 ng/mL) was 12.36%, the “Stability (ER %) Bench-top” value ([1]; rat plasma, 30 ng/mL) was 6.77% and the “Stability (ER %) Freeze/thaw” value ([1]; rat plasma, 30 ng/mL) was 10.24%. For the same compound, the “Stability (ER %) Autosampler” value ([1]; rat plasma, 80 ng/mL) was 13.46%, the “Stability (ER %) Bench-top” value ([1]; rat plasma, 80 ng/mL) was 10.93% and the “Stability (ER %) Freeze/thaw” value ([1]; rat plasma, 80 ng/mL) was 5.34%. For the same compound, the “Stability (ER %) Autosampler” value ([1]; rat plasma, 200 ng/mL) was 3.48%, the “Stability (ER %) Bench-top” value ([1]; rat plasma, 200 ng/mL) was 9.03% and the “Stability (ER %) Freeze/thaw” value ([1]; rat plasma, 200 ng/mL) was 1.04%. For the same compound, the “Stability (ER %) Autosampler” value [1, 8] was 4.01%, the “Stability (ER %) Bench-top” value [1, 8] was 1.42% and the “Stability (ER %) Freeze/thaw” value [1, 8] was 8.36%. The “Stability (ER %) Autosampler” value [1, 9] was 4.98%, the “Stability (ER %) Bench-top” value [1, 9] was 3.74% and the “Stability (ER %) Freeze/thaw” value [1, 9] was 4.43%. The “Stability (ER %) Autosampler” value [1, 10] was 3.13%, the “Stability (ER %) Bench-top” value [1, 10] was 1.52% and the “Stability (ER %) Freeze/thaw” value [1, 10] was 1.32%. For the same compound, the “brain concentration / CNS penetration, in words” value ([2]; rat brain) was “lower brain concentrations” and the “tissue concentrations (brain, liver, spleen, kidney, lung), in words” value ([2]; rats) was “lowest tissue concentrations”.
